# In patent US10301280B2 (Plexxikon Inc., priority 2012, dated 2019):
# Tested on: BaF3-FL KIT D816V or BaF3-FL KIT V560G/D816V cell line
# Test: Cell-based assays of c-Kit mutant kinase activity (cell growth, ATPlite)
# Conditions: at least one of the c-kit cell assays of Example 26
# Experimental: The c-Kit mutant D816V inhibitors were assessed using an engineered BaF3-FL KIT D816V or BaF3-FL KIT V560G/D816V cell line. The BaF3-FL KIT D816V cell lines were created by introduction of KIT mutant (D816V) full length constructs that render the cells dependent on the introduced kinase for growth. Inhibitors of c-Kit mutant D816V kinase reduce or eliminate the mediated c-kit mutant D816V kinase activation, resulting in reduced cell proliferation of the BaF3-FL Kit mutant D816V cells. This inhibition is measured by the effect of compound concentration on cell growth to assess IC50 values. BaF3-FL KIT D816V cells were seeded at 1×10^4 cells per well of a 96 well cell culture plate in 50 μl of cell culture medium of RPMI Medium 1X (Invitrogen #11875-093) supplemented with 10% FBS (Invitrogen #10438), 1% Non Essential Amino Acids(Invitrogen #11140), 1% Penicillin Streptomycin (Invitrogen #15140), 1% L-Glutamine (Invitrogen #25030-081). Compounds were dissolved in DMSO at a concentration of 5 mM and were serially diluted 1:3 for a total of eight points and added to the cells to a final maximum concentration of 10 μM in 100 μl cell culture medium (final concentration 0.2% DMSO). Cells were also treated with Dasatinib as a positive control. The cells were incubated at 37° C., 5% CO2 for three days. ATPlite Buffer (Perkin Elmer #6016739) and substrate were equilibrated to room temperature, and enzyme/substrate Recombinant Firefly Luciferase/D-Luciferin was reconstituted. The cell plates were equilibrated to room temperature for 30 minutes, then lysed by addition of 25 uL per well of the ATPlite Reagent. The plate was mixed for 5 minutes on a plate shaker to lyse the cells. The plates were read on a Tecan Safire using Luminescence protocol modified to read 0.1 s per well. The luminescence reading assesses the ATP content, which correlates directly with cell number such that the reading as a function of compound concentration is used to determine the IC50 value.
# Plasmids P75635 and P75565 were engineered for mammalian cell expression. In both plasmids, full-length human v-kit Hardy-Zuckerman 4 feline sarcoma viral oncogene homolog gene (NCBI accession NM_000222, KIT, residues M1-V976) was subcloned into the pCI-Neo vector (Promega E1841). Plasmid P75635 contains the mutation of residue Aspartic acid 816 to Valine. Plasmid P75565 contains the double mutation of residues Valine 560 to Glycine and Aspartic acid 816 to Valine. The pCI-neo Mammalian Expression Vector carries the human cytomegalovirus (CMV) immediate-early enhancer/promoter region to promote constitutive expression of KIT and contains the neomycin phosphotransferase gene, a selectable marker.
# It is understood that the results of these assays may vary as assay conditions are varied. Inhibition levels determined under the conditions described herein represent a relative activity for the compounds tested under the specific conditions employed. The cell based assays are likely to show variability due to the complexity of the system and the sensitivity thereof to any changes in the assay conditions. […] In some instances, the compounds were not tested in all of the assays, or assay results were not valid.
row,SMILES,IC50
1,"O=C(Nc1cnc2[nH]c(-c3ccccc3)cc2c1)c1n[nH]c(C(F)(F)F)c1Cl [P-2232, 4-chloro-N-(2-phenyl-1H-pyrrolo[2,3-b]pyridin-5-yl)-5-(trifluoromethyl)-1H-pyrazole-3-carboxamide]",< 10 µM
2,"COc1nccc(-c2cc3cc(NC(=O)c4[nH]nc(C)c4C)cnc3[nH]2)c1Cl [P-2171, N-[2-(3-chloro-2-methoxy-4-pyridyl)-1H-pyrrolo[2,3-b]pyridin-5-yl]-3,4-dimethyl-1H-pyrazole-5-carboxamide]",< 10 µM
3,"Cn1ncc2c(C(=O)Nc3cnc4[nH]c(-c5ccccc5)cc4c3)cccc21 [P-2298, 1-methyl-N-(2-phenyl-1H-pyrrolo[2,3-b]pyridin-5-yl)indazole-4-carboxamide]",< 10 µM
4,"Cc1n[nH]c(C(=O)Nc2cnc3[nH]c(-c4ccccc4Cl)cc3c2)c1C [P-2096, N-[2-(2-chlorophenyl)-1H-pyrrolo[2,3-b]pyridin-5-yl]-3,4-dimethyl-1H-pyrazole-5-carboxamide]",< 10 µM
5,"Cc1n[nH]c(C(=O)Nc2cnc3[nH]c(-c4ccnc(N5CCOCC5)c4F)cc3c2)c1C [P-2082, N-[2-(3-fluoro-2-morpholino-4-pyridyl)-1H-pyrrolo[2,3-b]pyridin-5-yl]-3,4-dimethyl-1H-pyrazole-5-carboxamide]",< 10 µM
6,"Cc1[nH]nc(C(=O)Nc2cnc3[nH]c(-c4ccnc(N5CCCC(O)C5)c4)cc3c2)c1C (centres unmarked) [P-2213, N-(2-(2-(3-hydroxypiperidin-1-yl)pyridin-4-yl)-1H-pyrrolo[2,3-b]pyridin-5-yl)-4,5-dimethyl-1H-pyrazole-3-carboxamide]",< 10 µM
7,"Cc1nn(C2CCNCC2)cc1-c1cc2cc(NC(=O)c3n[nH]c(C)c3C)cnc2[nH]1 [P-2201, 4,5-dimethyl-N-(2-(3-methyl-1-(piperidin-4-yl)-1H-pyrazol-4-yl)-1H-pyrrolo[2,3-b]pyridin-5-yl)-1H-pyrazole-3-carboxamide]",< 10 µM
8,"Cc1[nH]nc(C(=O)Nc2cnc3[nH]c(-c4ccc(F)c(C)c4C)cc3c2)c1C [P-2262, N-(2-(4-fluoro-2,3-dimethylphenyl)-1H-pyrrolo[2,3-b]pyridin-5-yl)-4,5-dimethyl-1H-pyrazole-3-carboxamide]",< 10 µM
9,"Cc1[nH]nc(C(=O)Nc2cnc3[nH]c(-c4ccnc(C(=O)NCCN(C)C)c4)cc3c2)c1C [P-2221, 4-(5-(4,5-dimethyl-1H-pyrazole-3-carboxamido)-1H-pyrrolo[2,3-b]pyridin-2-yl)-N-(2-(dimethylamino)ethyl)picolinamide]",< 10 µM
10,"Cc1nn(C2CNC2)cc1-c1cc2cc(NC(=O)c3n[nH]c(C)c3C)cnc2[nH]1 [P-2195, N-(2-(1-(azetidin-3-yl)-3-methyl-1H-pyrazol-4-yl)-1H-pyrrolo[2,3-b]pyridin-5-yl)-4,5-dimethyl-1H-pyrazole-3-carboxamide]",< 10 µM
11,"Cc1[nH]nc(C(=O)Nc2cnc3[nH]c(-c4cccnc4OC(F)F)cc3c2)c1C [P-2240, N-(2-(2-(difluoromethoxy)pyridin-3-yl)-1H-pyrrolo[2,3-b]pyridin-5-yl)-4,5-dimethyl-1H-pyrazole-3-carboxamide]",< 10 µM
12,"COc1cccc(-c2cc3cc(NC(=O)c4[nH]nc(C)c4C)cnc3[nH]2)c1F [P-2129, N-[2-(2-fluoro-3-methoxy-phenyl)-1H-pyrrolo[2,3-b]pyridin-5-yl]-3,4-dimethyl-1H-pyrazole-5-carboxamide]",< 10 µM
13,"CC(=O)Nc1cccc(-c2cc3cc(NC(=O)c4[nH]nc(C)c4C)cnc3[nH]2)c1 [P-2100, N-[2-(3-acetamidophenyl)-1H-pyrrolo[2,3-b]pyridin-5-yl]-3,4-dimethyl-1H-pyrazole-5-carboxamide]",< 10 µM
14,"Cc1[nH]nc(C(=O)Nc2cnc3[nH]c(-c4ccccc4)cc3c2)c1C(F)F [P-2235, 4-(difluoromethyl)-5-methyl-N-(2-phenyl-1H-pyrrolo[2,3-b]pyridin-5-yl)-1H-pyrazole-3-carboxamide]",< 10 µM
15,"O=C(Nc1cnc2[nH]c(-c3ccccc3)cc2c1)c1n[nH]c(Cl)c1C(F)(F)F [P-2233, 5-chloro-N-(2-phenyl-1H-pyrrolo[2,3-b]pyridin-5-yl)-4-(trifluoromethyl)-1H-pyrazole-3-carboxamide]",< 10 µM
16,"Cc1[nH]nc(C(=O)Nc2cnc3[nH]c(-c4ccnc(C(=O)NCCN5CCN(C)CC5)c4)cc3c2)c1C [P-2226, 4-(5-(4,5-dimethyl-1H-pyrazole-3-carboxamido)-1H-pyrrolo[2,3-b]pyridin-2-yl)-N-(2-(4-methylpiperazin-1-yl)ethyl)picolinamide]",< 10 µM

# Second part, the compound after the results:
row,IC50,SMILES
1,< 10 µM,"Cc1cccc(-c2cc3cc(NC(=O)c4[nH]nc(C)c4C)cnc3[nH]2)c1 [P-2130, 3,4-dimethyl-N-[2-(m-tolyl)-1H-pyrrolo[2,3-b]pyridin-5-yl]-1H-pyrazole-5-carboxamide]"
2,< 10 µM,"Cc1n[nH]c(C(=O)Nc2cnc3[nH]c(-c4cccc(Cl)c4C)cc3c2)c1C [P-2147, N-[2-(3-chloro-2-methyl-phenyl)-1H-pyrrolo[2,3-b]pyridin-5-yl]-3,4-dimethyl-1H-pyrazole-5-carboxamide]"
3,< 10 µM,"Cc1[nH]nc(C(=O)Nc2cnc3[nH]c(-c4ccc(F)cc4F)cc3c2)c1C [P-2260, N-(2-(2,4-difluorophenyl)-1H-pyrrolo[2,3-b]pyridin-5-yl)-4,5-dimethyl-1H-pyrazole-3-carboxamide]"
4,< 10 µM,"Cc1n[nH]c(C(=O)Nc2cnc3[nH]c(-c4cccc(OC(F)(F)F)c4)cc3c2)c1C [P-2086, 3,4-dimethyl-N-[2-[3-(trifluoromethoxy)phenyl]-1H-pyrrolo[2,3-b]pyridin-5-yl]-1H-pyrazole-5-carboxamide]"
5,< 10 µM,"Cc1[nH]nc(C(=O)Nc2cnc3[nH]c(-c4ccnc(C5CCN(C(=O)C6CC6)CC5)c4)cc3c2)c1C [P-2207, N-(2-(2-(1-(cyclopropanecarbonyl)piperidin-4-yl)pyridin-4-yl)-1H-pyrrolo[2,3-b]pyridin-5-yl)-4,5-dimethyl-1H-pyrazole-3-carboxamide]"
6,< 10 µM,"Cc1[nH]nc(C(=O)Nc2cnc3[nH]c(-c4ccc(C5CC5)nc4)cc3c2)c1C [P-2255, N-(2-(6-cyclopropylpyridin-3-yl)-1H-pyrrolo[2,3-b]pyridin-5-yl)-4,5-dimethyl-1H-pyrazole-3-carboxamide]"
7,< 10 µM,"Cc1[nH]nc(C(=O)Nc2cnc3[nH]c(-c4cnn(C5CNC5)c4C)cc3c2)c1C [P-2197, N-(2-(1-(azetidin-3-yl)-5-methyl-1H-pyrazol-4-yl)-1H-pyrrolo[2,3-b]pyridin-5-yl)-4,5-dimethyl-1H-pyrazole-3-carboxamide]"
8,< 10 µM,"O=C(Nc1cnc2[nH]c(-c3ccccc3)cc2c1)c1n[nH]c(C(F)F)c1Cl [P-2237, 4-chloro-5-(difluoromethyl)-N-(2-phenyl-1H-pyrrolo[2,3-b]pyridin-5-yl)-1H-pyrazole-3-carboxamide]"
9,< 10 µM,"Cc1c(C(=O)Nc2cnc3[nH]c(-c4ccccc4)cc3c2)n[nH]c1C(F)(F)F [P-2231, 4-methyl-N-(2-phenyl-1H-pyrrolo[2,3-b]pyridin-5-yl)-5-(trifluoromethyl)-1H-pyrazole-3-carboxamide]"
10,< 10 µM,"Cc1c(C(=O)Nc2cnc3[nH]c(-c4ccccc4)cc3c2)n[nH]c1C(F)F [P-2234, 5-(difluoromethyl)-4-methyl-N-(2-phenyl-1H-pyrrolo[2,3-b]pyridin-5-yl)-1H-pyrazole-3-carboxamide]"
11,< 10 µM,"Cc1[nH]nc(C(=O)Nc2cnc3[nH]c(-c4cccc5c4OC(F)(F)O5)cc3c2)c1C [P-2267, N-(2-(2,2-difluorobenzo[d][1,3]dioxol-4-yl)-1H-pyrrolo[2,3-b]pyridin-5-yl)-4,5-dimethyl-1H-pyrazole-3-carboxamide]"
12,< 10 µM,"Cc1[nH]nc(C(=O)Nc2cnc3[nH]c(-c4ccnc(C(=O)NC(C)C)c4)cc3c2)c1C [P-2229, 4-(5-(4,5-dimethyl-1H-pyrazole-3-carboxamido)-1H-pyrrolo[2,3-b]pyridin-2-yl)-N-isopropylpicolinamide]"
13,< 10 µM,"Cc1[nH]nc(C(=O)Nc2cnc3[nH]c(-c4ccnc(N5CCC(C)CC5)c4)cc3c2)c1C [P-2210, 4,5-dimethyl-N-(2-(2-(4-methylpiperidin-1-yl)pyridin-4-yl)-1H-pyrrolo[2,3-b]pyridin-5-yl)-1H-pyrazole-3-carboxamide]"
